Reference: PubChem BioAssay AID328 (DTP/NCI, 2004)
Values joined by “and” are separate entries in the source; they are usually repeats but may differ in a detail not shown here. Identical values can stand only once. Inconclusive results and toxic doses are left out.

Test system: BDF1 mice, P388 leukemia ip, median survival T/C
Assay: NCI In Vivo Anticancer Drug Screen. Data for tumor model P388 Leukemia (intraperitoneal) in B6D2F1 (BDF1) mice
Conditions: endpoint: median survival time, higher = longer survival
Procedure, shortened: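 Vehicle-dosed animals serve as the reference; survival of compound-dosed, tumour-implanted mice is divided by it.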

[1] = dose: 25.0 mg/kg/injection, schedule: Q01DX009 (ip), vehicle: saline with Tween-80
[2] = dose: 50.0 mg/kg/injection, schedule: Q01DX009 (ip), vehicle: saline with Tween-80
[3] = dose: 100.0 mg/kg/injection, schedule: Q01DX009 (ip), vehicle: saline with Tween-80
[4] = dose: 200.0 mg/kg/injection, schedule: Q01DX009 (ip), vehicle: saline with Tween-80
[5] = dose: 100.0 mg/kg/injection, schedule: Q04DX003 (ip), vehicle: Klucel (hydroxypropylcellulose) (HPC)
[6] = dose: 200.0 mg/kg/injection, schedule: Q04DX003 (ip), vehicle: Klucel (hydroxypropylcellulose) (HPC)
[7] = dose: 400.0 mg/kg/injection, schedule: Q04DX003 (ip), vehicle: Klucel (hydroxypropylcellulose) (HPC)
[8] = dose: 12.5 mg/kg/injection, schedule: Q01DX009 (ip), vehicle: saline
[9] = dose: 25.0 mg/kg/injection, schedule: Q01DX009 (ip), vehicle: saline
[10] = dose: 50.0 mg/kg/injection, schedule: Q01DX009 (ip), vehicle: saline
[11] = dose: 100.0 mg/kg/injection, schedule: Q01DX001 (ip), vehicle: other
[12] = dose: 200.0 mg/kg/injection, schedule: Q01DX001 (ip), vehicle: other
[13] = dose: 400.0 mg/kg/injection, schedule: Q01DX001 (ip), vehicle: other
[14] = dose: 100.0 mg/kg/injection, schedule: Q01DX009 (ip), vehicle: saline

Cc1c(N=Cc2ccccc2)c(=O)n(-c2ccccc2)n1C
T/C (dose: 100.0 mg/kg/injection, schedule: Q01DX009 (ip), vehicle: gum acacia): 110 % of control | T/C (dose: 100.0 mg/kg/injection, schedule: Q04DX003 (ip), vehicle: gum acacia): 88 % of control | T/C (dose: 200.0 mg/kg/injection, schedule: Q01DX009 (ip), vehicle: gum acacia): 103 % of control | T/C (dose: 200.0 mg/kg/injection, schedule: Q04DX003 (ip), vehicle: gum acacia): 100 % of control | T/C (dose: 400.0 mg/kg/injection, schedule: Q01DX009 (ip), vehicle: gum acacia): 92 % of control | T/C (dose: 400.0 mg/kg/injection, schedule: Q04DX003 (ip), vehicle: gum acacia): 92 % of control

COc1nc(Cl)nc(OC)n1
T/C [1]: 96 % of control | T/C [2]: 97 % of control | T/C [3]: 99 % of control | T/C [4]: 99 % of control

CCC(C)OP1(=S)OCC(C)O1 (stereo not given)
T/C (dose: 100.0 mg/kg/injection, schedule: Q04DX002 (ip), vehicle: saline with Tween-80): 115 % of control | T/C (dose: 200.0 mg/kg/injection, schedule: Q04DX002 (ip), vehicle: saline with Tween-80): 106 % of control | T/C (dose: 400.0 mg/kg/injection, schedule: Q04DX002 (ip), vehicle: saline with Tween-80): 118 % of control

COc1ccc2c(c1)C1CN(Cc3ccccc31)C2 (stereo not given)
T/C (dose: 50.0 mg/kg/injection, schedule: Q01DX001 (ip), vehicle: saline with Tween-80): 96 % of control | T/C (dose: 100.0 mg/kg/injection, schedule: Q01DX001 (ip), vehicle: saline with Tween-80): 99 % of control | T/C (dose: 200.0 mg/kg/injection, schedule: Q01DX001 (ip), vehicle: saline with Tween-80): 89 % of control

CC1=CC(OC2CCCCO2)C2CC1C2(C)C (stereo not given)
T/C [5]: 112 % of control | T/C [6]: 112 % of control | T/C [7]: 104 % of control

O=C(O)c1ccccc1NC(=O)C(F)(F)F
T/C (dose: 25.0 mg/kg/injection, schedule: Q04DX003 (ip), vehicle: saline sonified): 91 % of control | T/C (dose: 50.0 mg/kg/injection, schedule: Q04DX003 (ip), vehicle: saline sonified): 91 % of control | T/C (dose: 100.0 mg/kg/injection, schedule: Q04DX003 (ip), vehicle: saline sonified): 91 % of control

O=[N+]([O-])c1ccc(/C=[N+](\[O-])CCO)o1
T/C [2]: 111 % of control | T/C [3]: 113 % of control | T/C [4]: 111 % of control

ClC1=C(Cl)C2(Cl)C3C4CC(C5OC45)C3C1(Cl)C2(Cl)Cl (stereo not given)
T/C (dose: 3.13 mg/kg/injection, schedule: Q01DX009 (ip), vehicle: suspension in saline): 96 % of control

CNC1C(O)C(NC)C2OC3(O)C(=O)CC(C)OC3OC2C1O (stereo not given)
T/C (dose: 6.25 mg/kg/injection, schedule: Q01DX009 (ip), vehicle: saline): 112 % of control | T/C [8]: 106 % of control | T/C [9]: 97 % of control | T/C [10]: 106 % of control

CCC(=O)/C=C/c1ccccc1
T/C [2]: 93 % of control | T/C [3]: 109 % of control | T/C [4]: 118 % of control

CCCCCCCCCSC(=S)N(C)NC(=O)c1ccccn1
T/C [2]: 98 % of control | T/C [3]: 98 % of control

COc1ccc2c(c1)CC1NCCc3cc4c(c-2c31)OCO4 (stereo not given)
T/C [2]: 114 % of control | T/C [3]: 97 % of control

CCCC[N+](CCCC)(CCCC)CCCC.Cc1ccc([SH2+])c([SH2+])c1.Cc1ccc([SH2+])c([SH2+])c1.[Ni+3]
T/C [11]: 112 % of control | T/C [5]: 109 % of control | T/C (dose: 100.0 mg/kg/injection, schedule: Q04DX003 (ip), vehicle: saline): 115 % of control | T/C [12]: 112 % of control | T/C [6]: 118 % of control | T/C (dose: 200.0 mg/kg/injection, schedule: Q04DX003 (ip), vehicle: saline): 115 % of control | T/C (dose: 265.0 mg/kg/injection, schedule: Q04DX003 (ip), vehicle: Klucel (hydroxypropylcellulose) (HPC)): 116 % of control | T/C [13]: 112 % of control | T/C [7]: 112 % of control

CC12CCC(C=C1N1CCOCC1)C(C)(C)O2 (stereo not given)
T/C (dose: 50.0 mg/kg/injection, schedule: Q01DX005 (ip), vehicle: saline): 114 % of control | T/C (dose: 100.0 mg/kg/injection, schedule: Q01DX005 (ip), vehicle: saline): 122 % of control | T/C (dose: 200.0 mg/kg/injection, schedule: Q01DX005 (ip), vehicle: saline): 111 % of control

COC(=O)C1(C)CCc2c(ccc3ccccc23)C1=O (stereo not given)
T/C [11]: 100 % of control | T/C [12]: 95 % of control | T/C [13]: 113 % of control

OCc1nccn1Cc1ccccc1
T/C (dose: 12.5 mg/kg/injection, schedule: Q01DX009 (ip), vehicle: water): 108 % of control | T/C (dose: 25.0 mg/kg/injection, schedule: Q01DX009 (ip), vehicle: water): 99 % of control | T/C (dose: 50.0 mg/kg/injection, schedule: Q01DX009 (ip), vehicle: water): 101 % of control | T/C (dose: 100.0 mg/kg/injection, schedule: Q01DX009 (ip), vehicle: water): 108 % of control | T/C (dose: 200.0 mg/kg/injection, schedule: Q01DX009 (ip), vehicle: water): 101 % of control | T/C (dose: 300.0 mg/kg/injection, schedule: Q01DX009 (ip), vehicle: water): 114 % of control

CC(=O)N(C)C=C1C(=O)N(C)C(=O)N(C)C1=O
T/C [2]: 102 % of control | T/C [3]: 111 % of control | T/C [4]: 92 % of control

Cc1ccc2c(ccc(C)[n+]2C)c1
T/C (dose: 67.0 mg/kg/injection, schedule: Q01DX009 (ip), vehicle: saline): 183 % of control | T/C [14]: 150 % of control

CN(C)C1CCCCC1
T/C (dose: 25.0 mg/kg/injection, schedule: Q04DX003 (ip), vehicle: Klucel (hydroxypropylcellulose) (HPC)): 91 % of control | T/C (dose: 50.0 mg/kg/injection, schedule: Q04DX003 (ip), vehicle: Klucel (hydroxypropylcellulose) (HPC)): 95 % of control

O=C1c2ccccc2C(=O)c2c(Nc3ccc(CCO)cc3)ccc(O)c21
T/C [5]: 100 % of control | T/C [6]: 100 % of control | T/C [7]: 111 % of control

O=C(/C=C/c1ccncc1)c1cccc2ccccc12
T/C [8]: 102 % of control | T/C [9]: 108 % of control | T/C [10]: 100 % of control | T/C [14]: 116 % of control

CC(=O)OC(C(=O)c1ccccc1)c1ccccc1 (stereo not given)
T/C [5]: 95 % of control | T/C [6]: 104 % of control | T/C [7]: 108 % of control

CCC(C)n1ncc2c(N(C)C)ncnc21 (stereo not given)
T/C (dose: 12.5 mg/kg/injection, schedule: Q01DX009 (ip), vehicle: Klucel (hydroxypropylcellulose) (HPC)): 100 % of control | T/C (dose: 50.0 mg/kg/injection, schedule: Q01DX009 (ip), vehicle: Klucel (hydroxypropylcellulose) (HPC)): 92 % of control and 95 % of control | T/C [5]: 95 % of control | T/C [6]: 120 % of control

CC(=O)SCCC(=O)O
T/C (dose: 6.25 mg/kg/injection, schedule: Q01DX009 (ip), vehicle: saline with Tween-80): 109 % of control | T/C (dose: 6.25 mg/kg/injection, schedule: Q04DX003 (ip), vehicle: saline with Tween-80): 100 % of control | T/C (dose: 12.5 mg/kg/injection, schedule: Q01DX009 (ip), vehicle: saline with Tween-80): 100 % of control | T/C (dose: 12.5 mg/kg/injection, schedule: Q04DX003 (ip), vehicle: saline with Tween-80): 95 % of control | T/C [1]: 109 % of control | T/C (dose: 25.0 mg/kg/injection, schedule: Q04DX003 (ip), vehicle: saline with Tween-80): 100 % of control

CCCCCCCCC(O)CCC (stereo not given)
T/C [14]: 100 % of control | T/C (dose: 200.0 mg/kg/injection, schedule: Q01DX009 (ip), vehicle: saline): 109 % of control

CC(C)CCS(=O)(=O)OCCCCOS(=O)(=O)CCC(C)C
T/C [3]: 114 % of control | T/C (dose: 100.0 mg/kg/injection, schedule: Q04DX003 (ip), vehicle: saline with Tween-80): 100 % of control | T/C [4]: 109 % of control | T/C (dose: 200.0 mg/kg/injection, schedule: Q04DX003 (ip), vehicle: saline with Tween-80): 100 % of control | T/C (dose: 400.0 mg/kg/injection, schedule: Q01DX009 (ip), vehicle: saline with Tween-80): 114 % of control | T/C (dose: 400.0 mg/kg/injection, schedule: Q04DX003 (ip), vehicle: saline with Tween-80): 104 % of control

C=C[P+](c1ccccc1)(c1ccccc1)c1ccccc1
T/C (dose: 1.0 mg/kg/injection, schedule: Q01DX009 (ip), vehicle: saline): 110 % of control | T/C (dose: 1.5 mg/kg/injection, schedule: Q01DX010 (ip), vehicle: saline): 95 % of control | T/C (dose: 2.5 mg/kg/injection, schedule: Q01DX009 (ip), vehicle: saline): 150 % of control | T/C (dose: 3.0 mg/kg/injection, schedule: Q01DX010 (ip), vehicle: saline): 116 % of control | T/C (dose: 3.3 mg/kg/injection, schedule: Q04DX003 (ip), vehicle: saline): 120 % of control | T/C (dose: 3.7 mg/kg/injection, schedule: Q01DX009 (ip), vehicle: saline): 89 % of control | T/C (dose: 5.0 mg/kg/injection, schedule: Q01DX009 (ip), vehicle: saline): 95 % of control
